Measured values as given in PubChem BioAssay AID2060610 (Molecular Pharmacology Branch, DTP, NCI, 2025).
“And” between values parts separate entries of the source, which are not always exact repeats. Equal values may be shown once. Values belong to the molecule of their own block, whether it stands above or below them.

Tested on: 616215-338-R-J1-PDC complex spheroids, viability % test/control
Assay: Anticancer human tumor 616215-338-R-J1-PDC patient-derived colon adenocarcinoma cell line growth inhibition [CLK]
Conditions: for viability, T/C: stronger effect = lower value
How it was run: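 Multi-cell-type spheroids combined patient-derived tumor cells with HUVEC endothelial cells and human mesenchymal stem cells. Paired agents were dosed in half-log steps down from about clinical Cmax, or from 10 microM where Cmax was unknown.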

[1] = curve of first compound, second compound 0.0316 µM
[2] = curve of first compound, second compound 0.1 µM
[3] = curve of first compound, second compound 0.316 µM
[4] = curve of first compound, second compound 1 µM
[5] = curve of first compound, second compound 3.16 µM
[6] = curve of first compound, second compound 10 µM
[7] = second compound 0.0316 µM, first compound 0.0316 µM
[8] = second compound 0.0316 µM, first compound 0.1 µM
[9] = second compound 0.0316 µM, first compound 0.316 µM
[10] = second compound 0.0316 µM, first compound 1 µM
[11] = second compound 0.0316 µM, first compound 3.16 µM
[12] = second compound 0.0316 µM, first compound 10 µM
[13] = second compound 0.1 µM, first compound 0.0316 µM
[14] = second compound 0.1 µM, first compound 0.1 µM
[15] = second compound 0.1 µM, first compound 0.316 µM
[16] = second compound 0.1 µM, first compound 1 µM
[17] = second compound 0.1 µM, first compound 3.16 µM
[18] = second compound 0.1 µM, first compound 10 µM
[19] = second compound 0.316 µM, first compound 0.0316 µM
[20] = second compound 0.316 µM, first compound 0.1 µM
[21] = second compound 0.316 µM, first compound 0.316 µM
[22] = second compound 0.316 µM, first compound 1 µM
[23] = second compound 0.316 µM, first compound 3.16 µM
[24] = second compound 0.316 µM, first compound 10 µM
[25] = second compound 1 µM, first compound 0.0316 µM
[26] = second compound 1 µM, first compound 0.1 µM
[27] = second compound 1 µM, first compound 0.316 µM
[28] = second compound 1 µM, first compound 1 µM
[29] = second compound 1 µM, first compound 3.16 µM
[30] = second compound 1 µM, first compound 10 µM
[31] = second compound 3.16 µM, first compound 0.0316 µM
[32] = second compound 3.16 µM, first compound 0.1 µM
[33] = second compound 3.16 µM, first compound 0.316 µM
[34] = second compound 3.16 µM, first compound 1 µM
[35] = second compound 3.16 µM, first compound 3.16 µM
[36] = second compound 3.16 µM, first compound 10 µM
[37] = second compound 10 µM, first compound 0.0316 µM
[38] = second compound 10 µM, first compound 0.1 µM
[39] = second compound 10 µM, first compound 0.316 µM
[40] = second compound 10 µM, first compound 1 µM
[41] = second compound 10 µM, first compound 3.16 µM
[42] = second compound 10 µM, first compound 10 µM
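Further: spheroids exposed to agents for 7 days.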
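Wherever viability, T/C is given: 100% = DMSO vehicle wells.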

IC50 [1]: 651 nM | IC50 [2]: < 9.49 nM | IC50 [3]: < 9.49 nM | IC50 [4]: < 9.49 nM | IC50 [5]: < 9.49 nM | IC50 [6]: < 9.49 nM
Compound: NC(=O)C(=Cn1cnc(-c2cc(C(F)(F)F)cc(C(F)(F)F)c2)n1)c1cncnc1 + CNC(=O)c1ccc(Nc2nc(OC3CCCC3)c3c(-c4ccc5nc(C)oc5c4)c[nH]c3n2)c(OC)c1
viability, T/C (second compound 0.0316 µM, first compound 0.00949 µM): 84.9% | viability, T/C (second compound 0.0316 µM, first compound 0.03 µM): 95.5% | viability, T/C (second compound 0.0316 µM, first compound 0.0949 µM): 96% | viability, T/C (second compound 0.0316 µM, first compound 0.3 µM): 77.6% | viability, T/C (second compound 0.0316 µM, first compound 0.949 µM): 36.6% | viability, T/C (second compound 0.0316 µM, first compound 3 µM): 18.4% | viability, T/C (second compound 0.1 µM, first compound 0.00949 µM): 45.4% | viability, T/C (second compound 0.1 µM, first compound 0.03 µM): 48.2% | viability, T/C (second compound 0.1 µM, first compound 0.0949 µM): 34.1% | viability, T/C (second compound 0.1 µM, first compound 0.3 µM): 33.1% | viability, T/C (second compound 0.1 µM, first compound 0.949 µM): 32.5% | viability, T/C (second compound 0.1 µM, first compound 3 µM): 15.8% | viability, T/C (second compound 0.316 µM, first compound 0.00949 µM): 34% | viability, T/C (second compound 0.316 µM, first compound 0.03 µM): 30.4% | viability, T/C (second compound 0.316 µM, first compound 0.0949 µM): 29.7% | viability, T/C (second compound 0.316 µM, first compound 0.3 µM): 25.4% | viability, T/C (second compound 0.316 µM, first compound 0.949 µM): 29.3% | viability, T/C (second compound 0.316 µM, first compound 3 µM): 12.8% | viability, T/C (second compound 1 µM, first compound 0.00949 µM): 34.5% | viability, T/C (second compound 1 µM, first compound 0.03 µM): 33.4% | viability, T/C (second compound 1 µM, first compound 0.0949 µM): 30.5% | viability, T/C (second compound 1 µM, first compound 0.3 µM): 26.9% | viability, T/C (second compound 1 µM, first compound 0.949 µM): 18.3% | viability, T/C (second compound 1 µM, first compound 3 µM): 7.01% | viability, T/C (second compound 3.16 µM, first compound 0.00949 µM): 33.5% | viability, T/C (second compound 3.16 µM, first compound 0.03 µM): 35% | viability, T/C (second compound 3.16 µM, first compound 0.0949 µM): 27.7% | viability, T/C (second compound 3.16 µM, first compound 0.3 µM): 23.3% | viability, T/C (second compound 3.16 µM, first compound 0.949 µM): 13.1% | viability, T/C (second compound 3.16 µM, first compound 3 µM): 4.39% | viability, T/C (second compound 10 µM, first compound 0.00949 µM): 31.3% | viability, T/C (second compound 10 µM, first compound 0.03 µM): 28.5% | viability, T/C (second compound 10 µM, first compound 0.0949 µM): 28.9% | viability, T/C (second compound 10 µM, first compound 0.3 µM): 19.7% | viability, T/C (second compound 10 µM, first compound 0.949 µM): 10.8% | viability, T/C (second compound 10 µM, first compound 3 µM): 2.88%

IC50 (compound alone, run of 08/01/2023): 177 nM [middle of 12 runs]
Compound: CNC(=O)c1ccc(Nc2nc(OC3CCCC3)c3c(-c4ccc5nc(C)oc5c4)c[nH]c3n2)c(OC)c1
viability, T/C (compound 0.0316 µM): 90.7% [middle of 12 runs] | viability, T/C (compound 0.1 µM): 55.7% [middle of 12 runs] | viability, T/C (compound 0.316 µM): 44.2% [middle of 12 runs] | viability, T/C (compound 1 µM): 45.1% [middle of 12 runs] | viability, T/C (compound 3.16 µM): 42.3% [middle of 12 runs] | viability, T/C (compound 10 µM): 40.3% [middle of 12 runs]

IC50 (curve of compound): 142 nM and 299 nM
Compound: COc1cccc2c1C(=O)c1c(O)c3c(c(O)c1C2=O)CC(O)(C(=O)CO)CC3OC1CC(N)C(O)C(C)O1 (configuration not stated)
viability, T/C (compound 0.0316 µM): 102% and 112% | viability, T/C (compound 0.1 µM): 45.9% and 64.2% | viability, T/C (compound 0.316 µM): 40.4% and 49.8% | viability, T/C (compound 1 µM): 24% and 41.3% | viability, T/C (compound 3.16 µM): 0.74% and 0.78% | viability, T/C (compound 10 µM): 0.16% and 0.24%

Continued, molecule first:

Compound: C=C(F)C(=O)N1CCN(c2nc(OCC3CCCN3C)nc3c2CCN(c2cccc4cccc(Cl)c24)C3)CC1CC#N (configuration not stated) + CN1CCN(c2cc(C(=O)Nc3cc4cc(-c5cnn(C)c5)ccc4cn3)ccn2)CC1
IC50 [1]: 5870 nM | IC50 [2]: 6070 nM | IC50 [3]: < 31.6 nM | IC50 [4]: < 31.6 nM | IC50 [5]: < 31.6 nM | IC50 [6]: < 31.6 nM | viability, T/C [7]: 102% | viability, T/C [8]: 109% | viability, T/C [9]: 105% | viability, T/C [10]: 106% | viability, T/C [11]: 116% | viability, T/C [12]: 0.26% | viability, T/C [13]: 114% | viability, T/C [14]: 120% | viability, T/C [15]: 107% | viability, T/C [16]: 116% | viability, T/C [17]: 119% | viability, T/C [18]: 0.19% | viability, T/C [19]: 35.1% | viability, T/C [20]: 45.4% | viability, T/C [21]: 40.2% | viability, T/C [22]: 38.8% | viability, T/C [23]: 11.3% | viability, T/C [24]: 0.12% | viability, T/C [25]: 0.28% | viability, T/C [26]: 0.24% | viability, T/C [27]: 0.31% | viability, T/C [28]: 0.16% | viability, T/C [29]: 0.14% | viability, T/C [30]: 0.11% | viability, T/C [31]: 0.16% | viability, T/C [32]: 0.16% | viability, T/C [33]: 0.16% | viability, T/C [34]: 0.18% | viability, T/C [35]: 2.55% | viability, T/C [36]: 3.36% | viability, T/C [37]: 0.24% | viability, T/C [38]: 0.21% | viability, T/C [39]: 0.22% | viability, T/C [40]: 0.25% | viability, T/C [41]: 1.31% | viability, T/C [42]: 0.21%

Compound: CC1(C)CCC(CN2CCN(c3ccc(C(=O)NS(=O)(=O)c4ccc(NCC5CCOCC5)c([N+](=O)[O-])c4)c(Oc4cnc5[nH]ccc5c4)c3)CC2)=C(c2ccc(Cl)cc2)C1 + CN1CCN(c2cc(C(=O)Nc3cc4cc(-c5cnn(C)c5)ccc4cn3)ccn2)CC1
IC50 [1]: 5820 nM | IC50 [2]: 4310 nM | IC50 [3]: < 31.6 nM | IC50 [4]: < 31.6 nM | IC50 [5]: < 31.6 nM | IC50 [6]: < 31.6 nM | viability, T/C [7]: 105% | viability, T/C [8]: 106% | viability, T/C [9]: 102% | viability, T/C [10]: 103% | viability, T/C [11]: 106% | viability, T/C [12]: 1.63% | viability, T/C [13]: 109% | viability, T/C [14]: 118% | viability, T/C [15]: 110% | viability, T/C [16]: 129% | viability, T/C [17]: 67.9% | viability, T/C [18]: 1.54% | viability, T/C [19]: 35.4% | viability, T/C [20]: 31.4% | viability, T/C [21]: 32% | viability, T/C [22]: 26.9% | viability, T/C [23]: 12.7% | viability, T/C [24]: 1.79% | viability, T/C [25]: 0.16% | viability, T/C [26]: 0.22% | viability, T/C [27]: 0.2% | viability, T/C [28]: 0.16% | viability, T/C [29]: 2.45% | viability, T/C [30]: 0.3% | viability, T/C [31]: 0.12% | viability, T/C [32]: 0.14% | viability, T/C [33]: 0.15% | viability, T/C [34]: 0.12% | viability, T/C [35]: 0.11% | viability, T/C [36]: 0.62% | viability, T/C [37]: 0.13% | viability, T/C [38]: 0.14% | viability, T/C [39]: 0.16% | viability, T/C [40]: 0.15% | viability, T/C [41]: 3.51% | viability, T/C [42]: 0.2%

Compound: CC(Nc1ccc2c(c1)OCCn1cc(N3C(=O)OCC3C(F)F)nc1-2)C(N)=O (configuration not stated) + CN1CCN(c2cc(C(=O)Nc3cc4cc(-c5cnn(C)c5)ccc4cn3)ccn2)CC1
IC50 [1]: > 10000 nM | IC50 [2]: 1980 nM | IC50 [3]: < 31.6 nM | IC50 [4]: < 31.6 nM | IC50 [5]: < 31.6 nM | IC50 [6]: < 31.6 nM | viability, T/C [7]: 94.6% | viability, T/C [8]: 108% | viability, T/C [9]: 101% | viability, T/C [10]: 92% | viability, T/C [11]: 78.3% | viability, T/C [12]: 52.4% | viability, T/C [13]: 105% | viability, T/C [14]: 97.9% | viability, T/C [15]: 75% | viability, T/C [16]: 59.2% | viability, T/C [17]: 44.7% | viability, T/C [18]: 38% | viability, T/C [19]: 26.2% | viability, T/C [20]: 22% | viability, T/C [21]: 17.6% | viability, T/C [22]: 13.8% | viability, T/C [23]: 12.9% | viability, T/C [24]: 10.4% | viability, T/C [25]: 0.14% | viability, T/C [26]: 0.18% | viability, T/C [27]: 0.22% | viability, T/C [28]: 0.1% | viability, T/C [29]: 0.88% | viability, T/C [30]: 0.09% | viability, T/C [31]: 0.11% | viability, T/C [32]: 0.15% | viability, T/C [33]: 1.65% | viability, T/C [34]: 1.21% | viability, T/C [35]: 1.32% | viability, T/C [36]: 1.75% | viability, T/C [37]: 0.13% | viability, T/C [38]: 0.18% | viability, T/C [39]: 1.39% | viability, T/C [40]: 0.23% | viability, T/C [41]: 0.22% | viability, T/C [42]: 0.23%
